The record followed here is PMC6389703, “Identification of Biologically Active Ganoderma lucidum Compounds and Synthesis of Improved Derivatives That Confer Anti-cancer Activities in vitro” (Frontiers in Pharmacology, 2019).

Test [1] concerns SUM-149 cells. Description: Cell viability assay, SUM-149. The format is cell-based, human. The note with it: for EC50: Homo sapiens, read-out: EC50, SUM-149 cell viability. How it is done: Either 1 × 10^3–4.8 × 10^3 or 4 × 10^2–1.2 × 10^3 cells were seeded to each well of 96- or 384-well white polystyrene flat-bottomed plates (3610 or 8804BC, Corning) in 100 μL or 30 μL media per well, respectively. The concentrations used were experimentally determined to ensure logarithmic growth during the duration of the experiment and prevent adverse effects on cell growth by DMSO exposure. The plates were incubated at 37°C in 5% CO2 for 24 h before treatment. Stock solutions of test compounds (10 mM in DMSO) in nine 3-fold serial dilutions were dispensed via pintool (Biomek). The final concentration of DMSO was 0.3% (v/v) in each well. The plates were incubated for 72 h at 37°C in 5% CO2 and then quenched with CellTiter-Glo® reagent (50 μL/well in 96-well plate, 30 μL/well in 384-well plate) at RT. The positive controls included staurosporine (10 μM), gambogic acid (10 μM), and a toxic quinoline generated in-house. Plates were then incubated at RT for 20 min and centrifuged at 1000 rpm for 1 min. The cytotoxicity assay was performed by using the CellTiter-Glo® Luminescent Cell Viability Assay kit (G7570, Promega, Madison, WI, United States) according to the manufacturer’s instructions. Luminescence was recorded in an Envision plate reader (PerkinElmer).
Cell viability assays (MTT or PI staining assays) in SUM-149, SUM-190, MDA-MB-231, and MCF10A cells were performed as we previously described ([Suarez-Arroyo et al., 2016]).
(§1) For the CTG assay, 3 or 4 replicate assays were conducted for each experimental condition, and a minimum of 3 independent experiments were conducted for cellular assays. The mean luminescence of each experimental treatment group was normalized as a percentage of the mean intensity of untreated controls. EC50 values (μM) were calculated by Pipeline Pilot Software (Accelrys, Enterprise Platform, San Diego, CA, United States). EC50 values (μM) from the viability assay were calculated from dose response curve-fitting via non-linear regression by using GraphPad Prism (Version 7.0, San Diego, CA, United States). For cell viability, colony formation, cell-cycle progression, cell death, and western blot assays, the analyses were performed via one-way or two-way ANOVA with post-testing for each condition (concentration, cell cycle stage, apoptotic event, cell line) by using GraphPad Prism.

The test system of test [2] is SUM-149 cells. The test is described as follows: Colony formation assay. The test is classed as cell-based, human. To be noted: 72 h treatment, 5–40 μM, 10 days culture. How it is done:
SUM-149 cells (1.5 × 10^6 cells/well) were plated on a 6-well plate. Two days later, cell media was changed to 5% FBS, and cells were incubated at 37°C in a 5% CO2 atmosphere for 1 h before vehicle (0.1% DMSO) or EP (5–40 μM) was added. After 72 h of treatment, cells were trypsinized and reseeded at 200 cells/mL per well in 24-well plates. After 10 days of culture, colonies were visualized by crystal violet staining, and the colony numbers were counted under a microscope.

The subject of a further test is MCF-7 cells. The test is described as follows: ROS measurement (CellROX green), MCF-7. The format is cell-based, human. How it is done: (§2) SUM-149 or MDA-MB-231 were plated in 96-well plates at a density of 2 × 10^4 and 1 × 10^4 cells/well, respectively, in black 96-well clear bottom tissue culture plates and incubated for 24 h at 37°C. The mRuby-Mito-7 plasmid was obtained from Addgene (#55874 from Michael Davidson). A stable clone of MCF-7 was generated by using Fugene 6 (Roche) to transfect cells (2 × 10^5) with plasmid (2.0 μg) under neomycin selection. A stable cell line was selected by using G418 (300 μg/mL) for 2 weeks, sorted by flow cytometry, and maintained under G418 thereafter. Transfected MCF-7 cells were plated at a density of 2 × 10^4 cells/well in black 96-well clear bottom tissue culture plates and incubated overnight at 37°C. To test for ROS formation and remove background, cells were replenished with fresh PBS with 2% FBS and treated with the desired compounds for 1 h at 37°C. DMSO (0.5%) was used as a negative control, while Menadione (Mena, at 10 μM) or t-Butyl hydroperoxide (TBHP) at 100 μM final concentration were used as a positive control. To evaluate the compounds’ effects on ROS formation inhibition, the free radical scavenger N-acetyl cysteine (NAC) was used. Cells were treated with or without NAC (500 μM or 100 μM) for 1 h, then CellROX® green reagent (Molecular Probes #C10444) was added to a final concentration of 5 μM, and cells were incubated for an additional 30 min at 37°C. Cells were then washed 2× with PBS, followed by fixation with 4% paraformaldehyde (v/v) for 15 min, and 2 more washes with PBS. Fluorescence intensity was measured in a Clariostar® plate reader (BMG LABTECH, Cary, NC, United States) at 535 nm.

The test system of the next test is BCR-ABL cells. The test is described as follows: Cell Titer Glo viability assay, BCR-ABL. The format is cell-based, murine. The note with it: Mus musculus, 72-h treatment. How it is done: Either 1 × 10^3–4.8 × 10^3 or 4 × 10^2–1.2 × 10^3 cells were seeded to each well of 96- or 384-well white polystyrene flat-bottomed plates (3610 or 8804BC, Corning) in 100 μL or 30 μL media per well, respectively. The concentrations used were experimentally determined to ensure logarithmic growth during the duration of the experiment and prevent adverse effects on cell growth by DMSO exposure. The plates were incubated at 37°C in 5% CO2 for 24 h before treatment. Stock solutions of test compounds (10 mM in DMSO) in nine 3-fold serial dilutions were dispensed via pintool (Biomek). The final concentration of DMSO was 0.3% (v/v) in each well. […] Luminescence was recorded in an Envision plate reader (PerkinElmer).
as §1, with “For cell viability, colony formation, cell-cycle progression, cell death, and western blot assays, the analyses were performed via one-way or two-way ANOVA with post-testing for each condition (concentration, cell cycle stage, apoptotic event, cell line) by using GraphPad Prism.” left out
(ATP-based viability assays read luminescence as a measure of living cells.)

Test [3] has as its system SUM-149 cells. The test is described as follows: Annexin V/7-AAD apoptosis detection. The test is classed as cell-based, human. The note with it: 48 h. How it is done: SUM-149 cells (5 × 10^5) were seeded and treated either with vehicle (0.1% DMSO) or with 20 μM of EP or with puromycin (200 ng/mL) as positive control for 48 h. After treatment floating cells were collected, and all cells were harvested and counted. Treated cells were analyzed for cell death by using the FITC Annexin-V/7AAD Apoptosis detection kit (product #640922, Biolegend, San Diego, CA, United States) according to the manufacturer’s instructions. Briefly, cells were resuspended in Annexin Binding Buffer, stained with Annexin V-FITC and/or 7-AAD, and incubated for 30 min at 4°C. Data were acquired on a BD FACS Canto II cytometer (BD Biosciences, San José, CA, United States) and analyzed by using FlowJo software (V10, FlowJo, LLC, Ashland, OR, United States).

In test [4] the test system is SUM-149 cells. The test is described as follows: ROS measurement (CellROX green), SUM-149. The test is classed as cell-based, human. To be noted: EP 20 μM. How it is done:
as §2

Read-outs that look alike come from different tables or passages of the source.

By EC50 is commonly meant the concentration giving half of the maximal effect. With `CC(C)[C@@H](C)/C=C/[C@@H](C)[C@H]1CC[C@@H]2[C@]1(C)CC[C@H]1[C@]23C=C[C@]2(C[C@@H](O)CC[C@]12C)OO3` [EP, ergosterol peroxide], the “concentration at which SUM-149 cell viability is significantly reduced” value with SUM-149 cells [1] (72 h) was 8 µM. Also, the concentration giving a half-maximal response (EC50) in the test with SUM-149 cells [1] (SUM149, 24 h) was determined as 34 µM. The 50% effective concentration (EC50) with SUM-149 cells [1] (SUM149, 72 h) is 20 µM. In addition, the “number and size of colonies formed” value in the test with SUM-149 cells [2] is given as “concentration-dependent decrease”. For the same molecule, the “ROS increase (fold)” value in the test on MCF-7 cells (GA-01, ergosterol, 5,6-dehydroergosterol 50 µM, EP 20 µM) is on record as “at least a twofold”. Further, in the test on MCF-7 cells (NAC 100 µM, TBHP 100 µM), the “ROS formation reduction when co-treated with NAC” value is 9–25%. Besides, in the test with BCR-ABL cells, the midpoint of the response, the EC50, lay at 6.9 µM. For the same molecule, in the test with SUM-149 cells [3] (20μM), the Early apoptotic cells worked out at 50.1%, the Late apoptotic cells was determined as 3.2% and the Live cells was determined as 45.9%. Further, in the test with SUM-149 cells [3] (vs vehicle), the “decrease of live cells (Annexin-, 7AAD-)” value is roughly 15%. The “ROS formation (fold)” value in the test on SUM-149 cells [4] (1 h) is “fourfold”. For the same molecule, in the test with SUM-149 cells [4] (NAC 500 μM, menadione 10 μM), the “reduction in ROS formation in the presence of NAC” value is listed as “about 20%”.
